Source: BindingDB's records for doi:10.7270/Q2DZ06SS (Burnham Center For Chemical Genomics, 2011)

Molecular target: T1, BRCA1-associated RING domain protein 1 (Homo sapiens, UniProt Q99728)
T1 sequence (Q99728 whole entry): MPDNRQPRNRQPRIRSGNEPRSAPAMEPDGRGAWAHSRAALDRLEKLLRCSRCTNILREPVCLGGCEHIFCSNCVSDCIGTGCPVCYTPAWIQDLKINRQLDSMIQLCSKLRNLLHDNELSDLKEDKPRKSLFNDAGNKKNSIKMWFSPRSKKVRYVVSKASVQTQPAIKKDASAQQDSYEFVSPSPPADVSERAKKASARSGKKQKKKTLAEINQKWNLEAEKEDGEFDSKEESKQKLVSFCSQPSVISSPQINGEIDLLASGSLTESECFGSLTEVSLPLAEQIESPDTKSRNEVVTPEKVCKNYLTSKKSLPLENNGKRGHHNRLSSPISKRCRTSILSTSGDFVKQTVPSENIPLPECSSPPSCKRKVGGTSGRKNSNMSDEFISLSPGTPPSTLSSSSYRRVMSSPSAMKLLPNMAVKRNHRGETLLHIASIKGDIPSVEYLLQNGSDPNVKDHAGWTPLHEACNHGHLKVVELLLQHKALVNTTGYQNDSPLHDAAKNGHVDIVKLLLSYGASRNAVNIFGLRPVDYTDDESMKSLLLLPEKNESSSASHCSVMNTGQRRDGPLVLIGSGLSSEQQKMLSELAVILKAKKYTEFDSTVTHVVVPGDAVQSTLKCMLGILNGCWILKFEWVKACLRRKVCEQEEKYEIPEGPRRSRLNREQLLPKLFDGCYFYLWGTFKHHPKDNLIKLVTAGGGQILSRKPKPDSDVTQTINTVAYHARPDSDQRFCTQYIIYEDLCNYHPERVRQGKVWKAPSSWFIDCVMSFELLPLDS
Assay: inhibition of Brca1/Bard1 split-luciferase complementation, dose response, counter-screen for Mdm2/MdmX interaction inhibitor project, cell-based, luminescence (AID 504669)

IC50: 5.35 µM
SMILES: Cc1cc(N=NC(C)c2ccccc2O)nc(-c2ccccc2O)n1 (stereo unspecified)
